Each molecule was assayed against c-AMP phosphodiesterase (erythrocytes) (assay: Inhibition of cyclic AMP phosphodiesterase (erythrocytes)). Settings: phosphodiesterase extracted from erythrocytes, phosphate buffer pH 7.4, radiochemical procedure.
Format: biochemical
Procedure: The procedure used was that described by Arch, J. R. S. and Newsholme, E. A. in Biochem. J. 158, 603, (1976):
Erythrocytes were obtained from Na-citrate (16 mM; 0.1 ml/ml blood) anticoagulated blood by repeated centrifugation with removal of the buff coat and washing with an isotonic buffer (composition in mM: NaCl […], KCl 4, CACl2.2 H2 O 1.8, Na2 HPO4.12 H2 O 0.8, NaH2 PO4 0.2, MgSO4.7 H2 O 0.7, Hepes 3.4; pH 7.4).
The phosphodiesterase was extracted by mixing the erythrocytes with 4 volumes of 7 mM phosphate buffer, pH 7.4, followed by sonification (3×10 sec; 100 W) and then centrifuging for 30 min at 4200 x g.
All supernatants were diluted in the extraction medium and assayed for phosphodiesterase activity within 6 hours of preparation, using the radiochemical procedure described in the above mentioned reference.
Molecule `CC(=O)Cn1cnc2c1c(=O)n(CC1CCC1)c(=O)n2CC1CCC1` [Example 6, 1,3-Di-cyclobutylmethyl-7-(2-oxopropyl)-xanthine] has a Ki of 0.15 µM.
In the case of `CC(=O)Cn1cnc2c1c(=O)n(CC1CC1)c(=O)n2CC1CCCCC1` [Example 19, 1-(Cyclopropylmethyl)-3-(cyclohexylmethyl)-7-(2-oxopropyl)xanthine], the Ki is reported as 2.3 µM.
Molecule `CC(=O)Cn1cnc2c1c(=O)n(C1CCCCC1)c(=O)n2C1CCCCC1` [Example 11, 1,3-Di-cyclohexyl-7-(2-oxopropyl)-xanthine] has a Ki of 2.4 µM.
With `CC(=O)Cn1cnc2c1c(=O)n(CC1CC1)c(=O)n2CC1CC1` [Example 5, 1,3-Di-cyclopropylmethyl-7-(2-oxopropyl)-xanthine] the Ki was 1.4 µM.
`CCCn1cnc2c1c(=O)n(CC1CC1)c(=O)n2CC1CC1` [Example 14, 1,3-Di-cyclopropylmethyl-7-n-propyl xanthine] was tested, and the Ki was 5.27 µM.
Molecule `O=c1c2[nH]cnc2n(CC2CCC2)c(=O)n1CC1CCC1` [Example 2, 1,3-Di-cyclobutylmethyl xanthine] has a Ki of 2.2 µM.
`O=c1c2[nH]cnc2n(CC2CCCC2)c(=O)n1CC1CCCC1` [Example 3, 1,3-Di-cyclopentylmethyl xanthine] gave a Ki of 3.7 µM.
In the case of `O=c1c2[nH]cnc2n(CC2CCCCC2)c(=O)n1CC1CCCCC1` [Example 4, 1,3-Di-cyclohexylmethyl xanthine], the Ki is reported as 1.7 µM.
With `CC(=O)Cn1cnc2c1c(=O)n(CC1CCCC1)c(=O)n2CC1CCCC1` [Example 7, 1,3-Di-cyclopentylmethyl-7-(2-oxopropyl)-xanthine] the Ki was 1.3 µM.
`CCCn1cnc2c1c(=O)n(CC1CCC1)c(=O)n2CC1CCC1` [Example 15, 1,3-Di-cyclobutylmethyl-7-n-propyl xanthine] showed a Ki of 2.4 µM.
Molecule `O=c1c2[nH]cnc2n(CC2CC2)c(=O)n1CC1CC1` [Example 1, 1,3-Di-cyclopropylmethyl xanthine] has a Ki of 5.7 µM.
`CC(O)Cn1cnc2c1c(=O)n(CC1CCCC1)c(=O)n2CC1CCCC1` (stereo not drawn) [Example 9, 1,3-Di-cyclopentylmethyl-7-(2-hydroxypropyl)-xanthine] showed a Ki of 26.6 µM.
In the case of `CC(O)Cn1cnc2c1c(=O)n(CC1CCC1)c(=O)n2CC1CCC1` (stereo not drawn) [Example 12, 1,3-Di-cyclobutylmethyl-7-(2-hydroxypropyl)-xanthine], the Ki is reported as 13.5 µM.
For `O=c1c2[nH]cnc2n(C2CCCCC2)c(=O)n1C1CCCCC1` [Example 10, 1,3-Di-cyclohexyl xanthine], the Ki was 0.8 µM.
Work on `O=c1c2[nH]cnc2n(C2CCC2)c(=O)n1C1CCC1` [Example 13, 1,3-Di-cyclobutyl-xanthine] yielded a Ki of 1.7 µM.
Molecule `O=c1c2c(ncn2CC2CC2)n(CC2CC2)c(=O)n1CC1CC1` [Example 16, 1,3,7-Tri-cyclopropylmethyl-xanthine] has a Ki of 2.3 µM.
`O=c1c2[nH]cnc2n(CC2CCCCC2)c(=O)n1CC1CC1` [Example 22, 1-(Cyclopropylmethyl)-3-(cyclohexylmethyl)xanthine] showed a Ki of 23 µM.
`O=c1c2[nH]cnc2n(C2CCCC2)c(=O)n1CC1CC1` [Example 18, 1-(Cyclopropylmethyl)-3-cyclopentylxanthine] was tested, and the Ki was 8.4 µM.
Work on `CC(=O)Cn1cnc2c1c(=O)n(CC1CC1)c(=O)n2C1CCCC1` [Example 20, 1-(Cyclopropylmethyl)-3-cyclopentyl-7-(2-oxopropyl)-xanthine] yielded a Ki of 2 µM.
Work on `CC(=O)Cn1cnc2c1c(=O)n(CC1CCCCC1)c(=O)n2CC1CCCCC1` [Example 8, 1,3-Di-cyclohexylmethyl-7-(2-oxopropyl)-xanthine] yielded a Ki of 2.3 µM.

Each molecule was assayed on hippocampal CA1 field neuronal damage (assay: Delayed neuronal death in gerbils after transient forebrain ischaemia). Settings: 5.0 mg/kg i.p.; conclusion in words.
Format: in vivo, gerbil
Procedure: Ischaemia was produced in adult male gerbils by occlusion of both common carotid arteries for 3 minutes under halothane/nitrous oxide anaesthesia. During surgery the animals were placed upon a warming blanket. The ischaemia led to neuronal degeneration and to disturbed brain function.
Brains were removed 2 weeks later and 12 μm thick coronal slices were examined light microscopically for neuronal degeneration.
Three groups of animals were used:
2. solvent-treated ligated controls
3. compound-treated ligated animals
The compound was administered 1 hour before the ligation period.
Means±SEM (n) of histopathological score [HPS] which reflects the degree of neuronal damage in the hippocampal CA1 field: […]
In the case of `O=c1c2[nH]cnc2n(CC2CC2)c(=O)n1CC1CC1` [Example 1, 1,3-Di-cyclopropylmethyl xanthine], the “Prevention of ischaemia induced neuronal degeneration” value is reported as “significantly prevented ischaemia induced neuronal degeneration”.
